Laboratory results as given in ChEMBL document CHEMBL5678809, “Preclinical characterization of GLPG0634, a selective inhibitor of JAK1, for the treatment of inflammatory diseases” (J Immunol, 2013).
Active and inactive are the calls of the source. The calls are words filed in the database; no cut-off is given here.

How the values were obtained:
[1] = biological target: Tyrosine-protein kinase ABL2 (Homo sapiens) (UniProt P42684); test: Inhibition of Arg (unknown origin) at 1 uM relative to control
[2] = biological target: Serine/threonine-protein kinase BRSK1 (Homo sapiens) (UniProt Q8TDC3); test: Inhibition of BrSK1 (unknown origin) at 1 uM relative to control
[3] = biological target: Calcium/calmodulin-dependent protein kinase type 1 (Homo sapiens) (UniProt Q14012); test: Inhibition of CaMK1 (unknown origin) at 1 uM relative to control
[4] = biological target: Myotonin-protein kinase (Homo sapiens) (UniProt Q09013); test: Inhibition of DMPK (unknown origin) at 1 uM relative to control
[5] = biological target: Eukaryotic elongation factor 2 kinase (Homo sapiens) (UniProt O00418); test: Inhibition of eEF2K (unknown origin) at 1 uM relative to control
[6] = biological target: Tyrosine-protein kinase Fgr (Homo sapiens) (UniProt P09769); test: Inhibition of Fgr (unknown origin) at 1 uM relative to control
[7] = biological target: Vascular endothelial growth factor receptor 3 (Homo sapiens, UniProt P35916); test: Inhibition of Flt4 (unknown origin)
[8] = biological target: Tyrosine-protein kinase Fyn (Homo sapiens) (UniProt P06241); test: Inhibition of Fyn (unknown origin) at 1 uM relative to control
[9] = biological target: Serine/threonine-protein kinase haspin (Homo sapiens) (UniProt Q8TF76); test: Inhibition of Haspin (unknown origin) at 1 uM relative to control
[10] = biological target: Serine/threonine-protein kinase ICK (Homo sapiens, UniProt Q9UPZ9); test: Inhibition of ICK (unknown origin)
[11] = biological target: Mitogen-activated protein kinase 12 (Homo sapiens, UniProt P53778); test: Inhibition of MAPK12 (unknown origin)
[12] = biological target: Mitogen-activated protein kinase 14 (Homo sapiens, UniProt Q16539); test: Inhibition of MAPK14 (unknown origin)
[13] = biological target: Tyrosine-protein kinase Mer (Homo sapiens, UniProt Q12866); test: Inhibition of Mer (unknown origin)
Misshapen-like kinase 1 = Misshapen-like kinase 1 (Homo sapiens, UniProt Q8N4C8); test: Inhibition of MINK1 (unknown origin) at 1 uM relative to control
[14] = biological target: Serine/threonine-protein kinase 3 (Homo sapiens) (UniProt Q13188); test: Inhibition of MST2 (unknown origin) at 1 uM relative to control
[15] = biological target: Serine/threonine-protein kinase mTOR (Homo sapiens) (UniProt P42345); test: Inhibition of mTOR (unknown origin) at 1 uM relative to control
[16] = biological target: Serine/threonine-protein kinase Nek2 (Homo sapiens) (UniProt P51955); test: Inhibition of NEK2 (unknown origin) at 1 uM relative to control
[17] = biological target: Serine/threonine-protein kinase pim-2 (Homo sapiens) (UniProt Q9P1W9); test: Inhibition of Pim-2 (unknown origin) at 1 uM relative to control
Homo sapiens = species on record: Homo sapiens; test: Inhibition of PKB3 (unknown origin) at 1 uM relative to control
[18] = biological target: Rho-associated protein kinase 1 (Homo sapiens, UniProt Q13464); test: Inhibition of ROCK1 (unknown origin)
[19] = biological target: Serine/threonine-protein kinase PLK2 (Homo sapiens) (UniProt Q9NYY3); test: Inhibition of Snk (unknown origin) at 1 uM relative to control
[20] = biological target: Serine/threonine-protein kinase 33 (Homo sapiens) (UniProt Q9BYT3); test: Inhibition of STK33 (unknown origin) at 1 uM relative to control
[21] = biological target: Tyrosine-protein kinase SYK (Homo sapiens, UniProt P43405); test: Inhibition of SYK (unknown origin)
[22] = biological target: Serine/threonine-protein kinase TBK1 (Homo sapiens, UniProt Q9UHD2); test: Inhibition of TBK1 (unknown origin)
[23] = biological target: Testis-specific serine/threonine-protein kinase 2 (Homo sapiens) (UniProt Q96PF2); test: Inhibition of TSSK2 (unknown origin) at 1 uM relative to control
[24] = biological target: Tyrosine-protein kinase TXK (Homo sapiens) (UniProt P42681); test: Inhibition of Txk (unknown origin) at 1 uM relative to control
[25] = biological target: Serine/threonine-protein kinase ULK2 (Homo sapiens) (UniProt Q8IYT8); test: Inhibition of ULK2 (unknown origin) at 1 uM relative to control
[26] = biological target: Vascular endothelial growth factor receptor 1 (Homo sapiens, UniProt P17948); test: Inhibition of Flt1 (unknown origin) at 1 uM relative to control
[27] = Cmax in CD-1 mouse at 5 mg/kg, po measured upto 24 hrs by LC-MS analysis; format: ADME, organism-based; conditions: in vivo
[28] = Tmax in CD-1 mouse at 5 mg/kg, po measured upto 24 hrs by LC-MS analysis; format: ADME, organism-based; conditions: in vivo
[29] = Volume of distribution at steady state in CD-1 mouse at 1 mg/kg, iv measured upto 8 hrs by LC-MS analysis; format: ADME, organism-based; conditions: in vivo, read-out: Vdss
[30] = Volume of distribution at steady state in Sprague-Dawley rat at 1 mg/kg, iv measured upto 8 hrs by LC-MS analysis; format: ADME, organism-based; conditions: in vivo, read-out: Vdss
[31] = Oral bioavailability in Sprague-Dawley rat at 5 mg/kg measured upto 24 hrs by LC-MS analysis; format: ADME, organism-based; conditions: in vivo
Rattus norvegicus = test: Antiarthritic activity against collagen-induced arthritis Dark Agouti rat model assessed as reduction in clinical score at 1 to 10 mg/kg, po measured after day 5; format: functional, organism-based; conditions: dose 1-10 mg/kg, time 5.0 day
Mus musculus [32] = test: Antiarthritic activity against collagen-induced arthritis DBA/1J mouse model assessed as reduction in infiltration of F4/80+ macrophage cells in paw at 50 mg/kg, po administered twice daily for 14 days by immunohistochemistry analysis; format: functional, organism-based; conditions: time 14.0 day
Mus musculus [33] = test: Antiarthritic activity against collagen-induced arthritis DBA/1J mouse model assessed as reduction in IL-6 expression at 50 mg/kg, po measured for 4 hrs; format: functional, organism-based
Mus musculus [34] = test: Antiarthritic activity against collagen-induced arthritis DBA/1J mouse model assessed as reduction in IL-1beta expression at 50 mg/kg, po measured for 4 hrs; format: functional, organism-based
Mus musculus [35] = test: Antiarthritic activity against collagen-induced arthritis DBA/1J mouse model assessed as MDC level in serum at 50 mg/kg, po measured for 4 hrs by luminex analysis (reference value: 463.8 +/- 32.7 ng/ml); format: functional
Mus musculus [36] = test: Antiarthritic activity against collagen-induced arthritis DBA/1J mouse model assessed as IL-1alpha level in serum at 50 mg/kg, po measured for 4 hrs by luminex analysis (reference value: 359 +/- 83.8 ng/ml); format: functional
Mus musculus [37] = test: Antiarthritic activity against collagen-induced arthritis DBA/1J mouse model assessed as reduction in IL-6 level in serum at 50 mg/kg, po measured for 4 hrs by luminex analysis; format: functional, organism-based
Mus musculus [38] = test: Antiarthritic activity against collagen-induced arthritis DBA/1J mouse model assessed as reduction in MX1 level in whole blood at 50 mg/kg, po measured for 2 weeks by luminex analysis; format: functional, organism-based

Chain of Serine/threonine-protein kinase PLK2 (Homo sapiens) (Q9NYY3 whole entry, looked up): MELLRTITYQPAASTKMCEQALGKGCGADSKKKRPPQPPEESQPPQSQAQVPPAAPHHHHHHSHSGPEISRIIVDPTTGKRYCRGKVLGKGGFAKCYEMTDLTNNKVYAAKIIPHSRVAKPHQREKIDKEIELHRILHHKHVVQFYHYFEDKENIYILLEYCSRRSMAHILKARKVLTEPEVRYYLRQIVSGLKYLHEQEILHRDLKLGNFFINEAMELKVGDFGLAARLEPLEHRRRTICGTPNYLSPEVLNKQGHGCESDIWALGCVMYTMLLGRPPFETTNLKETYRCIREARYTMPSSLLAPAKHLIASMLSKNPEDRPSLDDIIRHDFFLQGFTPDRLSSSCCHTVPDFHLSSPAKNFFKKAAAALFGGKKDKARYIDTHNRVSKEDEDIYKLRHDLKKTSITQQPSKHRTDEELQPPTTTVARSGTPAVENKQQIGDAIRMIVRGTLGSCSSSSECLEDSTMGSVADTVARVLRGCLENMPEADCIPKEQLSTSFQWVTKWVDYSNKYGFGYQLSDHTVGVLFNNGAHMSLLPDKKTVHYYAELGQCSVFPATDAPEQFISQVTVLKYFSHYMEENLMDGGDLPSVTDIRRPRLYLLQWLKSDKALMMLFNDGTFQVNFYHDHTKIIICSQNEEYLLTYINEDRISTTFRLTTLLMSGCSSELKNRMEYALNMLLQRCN
Chain of Serine/threonine-protein kinase ULK2 (Homo sapiens) (Q8IYT8 whole entry): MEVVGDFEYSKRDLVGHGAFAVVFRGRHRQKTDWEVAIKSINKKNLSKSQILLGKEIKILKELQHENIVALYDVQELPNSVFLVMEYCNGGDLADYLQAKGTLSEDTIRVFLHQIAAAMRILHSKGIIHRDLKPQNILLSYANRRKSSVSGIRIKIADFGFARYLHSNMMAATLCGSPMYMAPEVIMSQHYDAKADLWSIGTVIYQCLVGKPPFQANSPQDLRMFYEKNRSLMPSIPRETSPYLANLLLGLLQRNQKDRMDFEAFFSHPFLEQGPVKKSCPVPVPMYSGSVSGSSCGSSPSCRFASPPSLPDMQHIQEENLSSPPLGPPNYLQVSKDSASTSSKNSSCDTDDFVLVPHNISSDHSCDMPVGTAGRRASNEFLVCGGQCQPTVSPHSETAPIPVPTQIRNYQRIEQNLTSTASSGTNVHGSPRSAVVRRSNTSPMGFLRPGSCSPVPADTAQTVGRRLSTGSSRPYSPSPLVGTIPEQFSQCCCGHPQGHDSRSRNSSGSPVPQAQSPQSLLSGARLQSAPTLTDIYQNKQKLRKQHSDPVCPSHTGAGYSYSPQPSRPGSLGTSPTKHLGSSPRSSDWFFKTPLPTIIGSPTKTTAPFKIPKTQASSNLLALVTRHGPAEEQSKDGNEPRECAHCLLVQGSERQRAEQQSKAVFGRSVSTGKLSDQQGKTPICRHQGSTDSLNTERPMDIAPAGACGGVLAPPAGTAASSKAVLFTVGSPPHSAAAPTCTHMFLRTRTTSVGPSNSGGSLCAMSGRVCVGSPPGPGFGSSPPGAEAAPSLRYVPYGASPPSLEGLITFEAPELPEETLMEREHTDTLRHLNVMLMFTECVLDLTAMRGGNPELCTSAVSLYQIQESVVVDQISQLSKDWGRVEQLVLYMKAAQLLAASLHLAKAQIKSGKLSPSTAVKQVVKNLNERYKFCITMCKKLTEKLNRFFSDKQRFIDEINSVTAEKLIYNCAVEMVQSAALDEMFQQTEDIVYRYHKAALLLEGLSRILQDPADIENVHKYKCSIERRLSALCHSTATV
Chain of Serine/threonine-protein kinase haspin (Homo sapiens) (Q8TF76 whole entry): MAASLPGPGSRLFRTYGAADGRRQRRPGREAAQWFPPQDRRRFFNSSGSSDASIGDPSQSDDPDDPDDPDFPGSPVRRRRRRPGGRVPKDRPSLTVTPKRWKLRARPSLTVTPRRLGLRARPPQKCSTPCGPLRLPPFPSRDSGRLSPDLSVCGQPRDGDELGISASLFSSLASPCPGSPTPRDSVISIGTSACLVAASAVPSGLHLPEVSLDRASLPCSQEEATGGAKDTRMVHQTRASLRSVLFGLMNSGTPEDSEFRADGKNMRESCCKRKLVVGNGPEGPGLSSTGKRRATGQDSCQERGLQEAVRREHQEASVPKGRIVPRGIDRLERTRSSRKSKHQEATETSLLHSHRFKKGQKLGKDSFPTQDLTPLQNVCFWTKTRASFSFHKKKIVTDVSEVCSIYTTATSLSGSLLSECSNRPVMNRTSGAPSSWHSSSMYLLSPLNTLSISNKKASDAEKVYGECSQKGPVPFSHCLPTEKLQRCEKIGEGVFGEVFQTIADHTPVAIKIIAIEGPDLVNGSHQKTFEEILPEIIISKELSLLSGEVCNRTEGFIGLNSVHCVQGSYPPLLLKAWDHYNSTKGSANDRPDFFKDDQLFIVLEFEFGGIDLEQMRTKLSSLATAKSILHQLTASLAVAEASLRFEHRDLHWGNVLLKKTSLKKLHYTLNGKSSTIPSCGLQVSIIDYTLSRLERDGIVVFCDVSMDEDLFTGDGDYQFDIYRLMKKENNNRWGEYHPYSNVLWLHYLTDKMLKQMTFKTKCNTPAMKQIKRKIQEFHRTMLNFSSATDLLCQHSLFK
Chain of Serine/threonine-protein kinase Nek2 (Homo sapiens) (P51955 whole entry): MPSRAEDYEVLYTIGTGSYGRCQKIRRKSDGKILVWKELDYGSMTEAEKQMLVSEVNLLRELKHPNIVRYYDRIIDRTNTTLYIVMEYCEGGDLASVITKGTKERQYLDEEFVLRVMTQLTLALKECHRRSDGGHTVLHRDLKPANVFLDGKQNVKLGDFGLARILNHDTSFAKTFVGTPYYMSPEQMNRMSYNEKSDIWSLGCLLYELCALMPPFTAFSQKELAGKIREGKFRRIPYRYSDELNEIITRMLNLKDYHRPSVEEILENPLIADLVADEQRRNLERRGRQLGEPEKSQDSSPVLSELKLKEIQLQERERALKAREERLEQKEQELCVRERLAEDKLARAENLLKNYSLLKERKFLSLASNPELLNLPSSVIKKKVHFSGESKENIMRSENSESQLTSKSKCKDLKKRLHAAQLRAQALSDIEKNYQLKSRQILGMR
Chain of Vascular endothelial growth factor receptor 1 (P17948 whole entry): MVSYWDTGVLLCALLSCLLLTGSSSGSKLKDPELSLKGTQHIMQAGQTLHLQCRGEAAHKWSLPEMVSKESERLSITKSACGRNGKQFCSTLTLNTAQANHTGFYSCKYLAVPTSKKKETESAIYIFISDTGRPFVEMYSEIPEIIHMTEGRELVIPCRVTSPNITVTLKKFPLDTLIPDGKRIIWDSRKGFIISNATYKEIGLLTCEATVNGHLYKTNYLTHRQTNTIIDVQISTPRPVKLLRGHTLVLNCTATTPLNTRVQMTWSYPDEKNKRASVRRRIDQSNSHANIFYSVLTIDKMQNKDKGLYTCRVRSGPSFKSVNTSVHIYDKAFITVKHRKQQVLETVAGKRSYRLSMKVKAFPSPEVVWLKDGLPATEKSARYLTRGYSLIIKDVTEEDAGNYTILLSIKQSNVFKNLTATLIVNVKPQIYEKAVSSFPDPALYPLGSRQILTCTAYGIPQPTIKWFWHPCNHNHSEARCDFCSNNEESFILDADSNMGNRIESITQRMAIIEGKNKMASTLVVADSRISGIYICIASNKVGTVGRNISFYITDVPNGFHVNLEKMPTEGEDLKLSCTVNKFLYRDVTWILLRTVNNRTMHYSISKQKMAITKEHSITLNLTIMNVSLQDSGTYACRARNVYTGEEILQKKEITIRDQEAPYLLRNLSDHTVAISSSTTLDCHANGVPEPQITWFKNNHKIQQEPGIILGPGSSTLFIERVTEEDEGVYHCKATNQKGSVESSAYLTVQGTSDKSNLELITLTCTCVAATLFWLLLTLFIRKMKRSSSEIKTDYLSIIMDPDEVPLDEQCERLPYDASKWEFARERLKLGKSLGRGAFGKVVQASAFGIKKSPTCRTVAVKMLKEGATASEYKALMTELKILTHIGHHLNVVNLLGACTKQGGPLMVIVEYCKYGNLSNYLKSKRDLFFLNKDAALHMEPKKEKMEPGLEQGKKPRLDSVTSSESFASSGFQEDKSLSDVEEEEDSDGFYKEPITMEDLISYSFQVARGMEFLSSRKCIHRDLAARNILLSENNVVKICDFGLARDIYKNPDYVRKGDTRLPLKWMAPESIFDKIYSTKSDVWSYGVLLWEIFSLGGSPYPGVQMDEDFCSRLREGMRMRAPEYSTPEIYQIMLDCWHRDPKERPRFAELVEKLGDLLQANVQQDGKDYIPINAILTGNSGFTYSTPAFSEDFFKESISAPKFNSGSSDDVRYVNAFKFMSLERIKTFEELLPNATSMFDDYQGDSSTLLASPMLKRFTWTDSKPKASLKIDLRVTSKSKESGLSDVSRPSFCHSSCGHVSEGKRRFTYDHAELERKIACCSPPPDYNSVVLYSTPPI
Chain of Calcium/calmodulin-dependent protein kinase type 1 (Homo sapiens) (Q14012 whole entry, looked up): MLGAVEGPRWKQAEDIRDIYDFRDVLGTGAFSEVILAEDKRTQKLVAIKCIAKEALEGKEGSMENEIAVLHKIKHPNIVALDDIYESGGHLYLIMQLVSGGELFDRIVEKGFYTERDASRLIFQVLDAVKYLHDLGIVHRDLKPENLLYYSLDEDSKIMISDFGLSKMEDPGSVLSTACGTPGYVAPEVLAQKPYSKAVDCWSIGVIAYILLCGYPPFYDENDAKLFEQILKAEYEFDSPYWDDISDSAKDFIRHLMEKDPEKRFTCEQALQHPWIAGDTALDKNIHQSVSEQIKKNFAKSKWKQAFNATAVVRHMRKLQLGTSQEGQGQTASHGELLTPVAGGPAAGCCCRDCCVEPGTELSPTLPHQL
Chain of Mitogen-activated protein kinase 12 (P53778 whole entry): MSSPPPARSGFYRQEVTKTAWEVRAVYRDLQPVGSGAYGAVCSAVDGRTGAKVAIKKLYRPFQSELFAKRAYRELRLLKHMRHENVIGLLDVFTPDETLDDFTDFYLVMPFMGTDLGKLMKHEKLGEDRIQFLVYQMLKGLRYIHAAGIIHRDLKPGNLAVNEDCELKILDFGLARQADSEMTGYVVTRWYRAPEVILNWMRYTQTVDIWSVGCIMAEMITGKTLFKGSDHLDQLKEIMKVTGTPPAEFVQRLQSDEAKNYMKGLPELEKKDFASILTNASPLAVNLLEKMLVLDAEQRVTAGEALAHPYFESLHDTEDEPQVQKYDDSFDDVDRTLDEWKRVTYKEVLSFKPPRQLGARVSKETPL

`O=C(Nc1nc2cccc(-c3ccc(CN4CCS(=O)(=O)CC4)cc3)n2n1)C1CC1` [FILGOTINIB] gave an inhibition [1] of 14%, an inhibition [2] of -5% and an inhibition [3] of -4%. The inhibition [4] was -4%, the inhibition [5] was -4% and the inhibition [6] was 5%. For the same molecule, the IC50 [7] was 0.274 µM, the inhibition [8] was 0% and the inhibition [9] was -6%. For the same molecule, the IC50 [10] was > 10 µM, the IC50 [11] was > 10 µM and the IC50 [12] was > 10 µM. It also gave an IC50 [13] of 1.27 µM, an inhibition (Misshapen-like kinase 1) of -2% and an inhibition [14] of -10%. It also gave an inhibition [15] of -7%, an inhibition [16] of -10% and an inhibition [17] of -7%. For the same molecule, the inhibition (Homo sapiens) was -6%, the IC50 [18] was > 10 µM and the inhibition [19] was 0%. The inhibition [20] was -8%, the IC50 [21] was > 10 µM and the IC50 [22] was 1.79 µM. The inhibition [23] was -5%, the inhibition [24] was 14% and the inhibition [25] was -8%. For the same molecule, the inhibition [26] was 37%, the Cmax [27] was 920 ng/mL and the Tmax [28] was 30 min. It also gave a Vd [29] of 6 L/kg, a Vd [30] of 1.8 L/kg and a bioavailability [31] of 45%. The Activity (Rattus norvegicus) was “Active”, the Activity (Mus musculus [32]) was “Active” and the Activity (Mus musculus [33]) was “Active”. The Activity (Mus musculus [34]) was “Active”, the Activity (Mus musculus [35]) was 372.4 ng/mL and the Activity (Mus musculus [36]) was 123 ng/mL. For the same molecule, the Activity (Mus musculus [37]) was “Active” and the Activity (Mus musculus [38]) was “inactive”.
